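Step 1: Grow cells in 96-well plates. Step 2: Expose to compound for 48 hours at 5 concentrations. Step 3: Interpolate endpoints linearly; if unreached, use highest concentration. Abbreviation: GI50, concentration required for 50% inhibition of growth. TGI denotes the concentration required for complete inhibition of growth.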
Tests used:
Experiment in all cases: NCI-60 cell line screen, 48 h
NCI-H460 lung = test system: NCI-H460 lung
SW-620 colon = test system: SW-620 colon
DU-145 prostate = test system: DU-145 prostate
LOX IMVI melanoma = test system: LOX IMVI melanoma
HT29 colon = test system: HT29 colon
OVCAR-5 ovarian = test system: OVCAR-5 ovarian
T-47D breast = test system: T-47D breast
SF-268 CNS = test system: SF-268 CNS
OVCAR-8 ovarian = test system: OVCAR-8 ovarian
HS 578T breast = test system: HS 578T breast
A498 renal = test system: A498 renal
HOP-62 NSCLC = test system: HOP-62 NSCLC
SNB-19 CNS = test system: SNB-19 CNS
NCI-H23 lung = test system: NCI-H23 lung
NCI-H522 lung = test system: NCI-H522 lung
HCT-15 colon = test system: HCT-15 colon
CAKI-1 renal = test system: CAKI-1 renal
MDA-MB-231 breast = test system: MDA-MB-231 breast
MDA-MB-435 = test system: MDA-MB-435
CCRF-CEM leukemia = test system: CCRF-CEM leukemia
MOLT-4 leukemia = test system: MOLT-4 leukemia
HL-60(TB) leukemia = test system: HL-60(TB) leukemia
MCF7 breast = test system: MCF7 breast
UO-31 renal = test system: UO-31 renal
SF-295 CNS = test system: SF-295 CNS
K-562 leukemia = test system: K-562 leukemia
M14 melanoma = test system: M14 melanoma
EKVX NSCLC = test system: EKVX NSCLC
PC-3 prostate = test system: PC-3 prostate
HCC-2998 colon = test system: HCC-2998 colon
A549 NSCLC = test system: A549 NSCLC
SK-MEL-2 melanoma = test system: SK-MEL-2 melanoma
TK-10 renal = test system: TK-10 renal
UACC-62 melanoma = test system: UACC-62 melanoma
UACC-257 melanoma = test system: UACC-257 melanoma
IGROV1 ovarian = test system: IGROV1 ovarian
SNB-75 CNS = test system: SNB-75 CNS
NCI-H226 lung = test system: NCI-H226 lung
RXF 393 renal = test system: RXF 393 renal
SF-539 CNS = test system: SF-539 CNS
HOP-92 NSCLC = test system: HOP-92 NSCLC
786-0 renal = test system: 786-0 renal
ACHN renal = test system: ACHN renal
BT-549 breast = test system: BT-549 breast
NCI/ADR-RES ovarian = test system: NCI/ADR-RES ovarian
OVCAR-4 ovarian = test system: OVCAR-4 ovarian
SK-OV-3 ovarian = test system: SK-OV-3 ovarian
KM12 colon = test system: KM12 colon
SN12C renal = test system: SN12C renal
OVCAR-3 ovarian = test system: OVCAR-3 ovarian
MALME-3M melanoma = test system: MALME-3M melanoma
RPMI-8226 leukemia = test system: RPMI-8226 leukemia
SK-MEL-5 melanoma = test system: SK-MEL-5 melanoma
SK-MEL-28 melanoma = test system: SK-MEL-28 melanoma
SR leukemia = test system: SR leukemia
COLO 205 colon = test system: COLO 205 colon
U251 CNS = test system: U251 CNS
HCT-116 colon = test system: HCT-116 colon

`COc1cc(/C=C/C(=O)c2c(C)nc3ccccc3c2C)ccc1OCCCN1CCN(C(=O)c2ccco2)CC1` gave a GI50 (NCI-H460 lung) of 8.91 µM, a TGI (NCI-H460 lung) of 21.7 µM and a GI50 (SW-620 colon) of 6.03 µM. The TGI (SW-620 colon) was 19.2 µM, the GI50 (DU-145 prostate) was 9.78 µM and the TGI (DU-145 prostate) was 21.4 µM. For the same molecule, the GI50 (LOX IMVI melanoma) was 7.75 µM, the TGI (LOX IMVI melanoma) was 21.5 µM and the GI50 (HT29 colon) was 7.71 µM. The TGI (HT29 colon) was 23.2 µM, the GI50 (OVCAR-5 ovarian) was 18.1 µM and the TGI (OVCAR-5 ovarian) was 32 µM. For the same molecule, the GI50 (T-47D breast) was 2.5 µM, the TGI (T-47D breast) was 15 µM and the GI50 (SF-268 CNS) was 10.9 µM. The TGI (SF-268 CNS) was 25.8 µM, the GI50 (OVCAR-8 ovarian) was 8.43 µM and the TGI (OVCAR-8 ovarian) was 42.4 µM. For the same molecule, the GI50 (HS 578T breast) was 12 µM, the TGI (HS 578T breast) was 51.8 µM and the GI50 (A498 renal) was 4.14 µM. It also gave a TGI (A498 renal) of 17.7 µM, a GI50 (HOP-62 NSCLC) of 14.7 µM and a TGI (HOP-62 NSCLC) of 30 µM. For the same molecule, the GI50 (SNB-19 CNS) was 11.9 µM, the TGI (SNB-19 CNS) was 31.1 µM and the GI50 (NCI-H23 lung) was 6.39 µM. It also gave a TGI (NCI-H23 lung) of 24.7 µM, a GI50 (NCI-H522 lung) of 5.06 µM and a TGI (NCI-H522 lung) of 23.9 µM. For the same molecule, the GI50 (HCT-15 colon) was 5.74 µM, the TGI (HCT-15 colon) was 30.9 µM and the GI50 (CAKI-1 renal) was 1.86 µM. For the same molecule, the TGI (CAKI-1 renal) was 9.03 µM, the GI50 (MDA-MB-231 breast) was 7.22 µM and the TGI (MDA-MB-231 breast) was 29.9 µM. It also gave a GI50 (MDA-MB-435) of 4.55 µM, a TGI (MDA-MB-435) of 19.8 µM and a GI50 (CCRF-CEM leukemia) of 3 µM. The TGI (CCRF-CEM leukemia) was 17.9 µM, the GI50 (MOLT-4 leukemia) was 0.528 µM and the TGI (MOLT-4 leukemia) was 8 µM. The GI50 (HL-60(TB) leukemia) was 2.72 µM, the TGI (HL-60(TB) leukemia) was 5.63 µM and the GI50 (MCF7 breast) was 3.8 µM. For the same molecule, the TGI (MCF7 breast) was 15.8 µM, the GI50 (UO-31 renal) was 4 µM and the TGI (UO-31 renal) was 19.6 µM. The GI50 (SF-295 CNS) was 8.42 µM, the TGI (SF-295 CNS) was 25.1 µM and the GI50 (K-562 leukemia) was 2.57 µM. For the same molecule, the TGI (K-562 leukemia) was 10.6 µM, the GI50 (M14 melanoma) was 11.6 µM and the TGI (M14 melanoma) was 23.8 µM. It also gave a GI50 (EKVX NSCLC) of 7.76 µM, a TGI (EKVX NSCLC) of 42.6 µM and a GI50 (PC-3 prostate) of 6.44 µM. For the same molecule, the TGI (PC-3 prostate) was 26.7 µM, the GI50 (HCC-2998 colon) was 10.4 µM and the TGI (HCC-2998 colon) was 22.1 µM. For the same molecule, the GI50 (A549 NSCLC) was 11.3 µM, the TGI (A549 NSCLC) was 27.3 µM and the GI50 (SK-MEL-2 melanoma) was 16.1 µM. The TGI (SK-MEL-2 melanoma) was 37.7 µM, the GI50 (TK-10 renal) was 15.3 µM and the TGI (TK-10 renal) was 30 µM. It also gave a GI50 (UACC-62 melanoma) of 8.39 µM, a TGI (UACC-62 melanoma) of 21.7 µM and a GI50 (UACC-257 melanoma) of 3.28 µM. For the same molecule, the TGI (UACC-257 melanoma) was 16.1 µM, the GI50 (IGROV1 ovarian) was 6.7 µM and the TGI (IGROV1 ovarian) was 24.6 µM. The GI50 (SNB-75 CNS) was 12.8 µM, the TGI (SNB-75 CNS) was 27.6 µM and the GI50 (NCI-H226 lung) was 13.7 µM. It also gave a TGI (NCI-H226 lung) of 29.9 µM, a GI50 (RXF 393 renal) of 2.8 µM and a TGI (RXF 393 renal) of 10.2 µM. It also gave a GI50 (SF-539 CNS) of 14.4 µM, a TGI (SF-539 CNS) of 27.5 µM and a TGI (HOP-92 NSCLC) of 4.74 µM. It also gave a GI50 (786-0 renal) of 7.83 µM, a TGI (786-0 renal) of 20.5 µM and a GI50 (ACHN renal) of 10.2 µM. For the same molecule, the TGI (ACHN renal) was 25.1 µM, the GI50 (BT-549 breast) was 4.86 µM and the TGI (BT-549 breast) was 23.3 µM. It also gave a GI50 (NCI/ADR-RES ovarian) of 5.55 µM, a TGI (NCI/ADR-RES ovarian) of 45.2 µM and a GI50 (OVCAR-4 ovarian) of 8.85 µM. For the same molecule, the TGI (OVCAR-4 ovarian) was > 100 µM, the GI50 (SK-OV-3 ovarian) was 16.1 µM and the TGI (SK-OV-3 ovarian) was 52 µM. The GI50 (KM12 colon) was 11.4 µM, the TGI (KM12 colon) was 24.3 µM and the GI50 (SN12C renal) was 11 µM. The TGI (SN12C renal) was 28.7 µM, the GI50 (OVCAR-3 ovarian) was 9.46 µM and the TGI (OVCAR-3 ovarian) was 21.3 µM. For the same molecule, the GI50 (MALME-3M melanoma) was 3.43 µM, the TGI (MALME-3M melanoma) was 18.2 µM and the GI50 (RPMI-8226 leukemia) was 1.92 µM. It also gave a TGI (RPMI-8226 leukemia) of 11.9 µM, a GI50 (SK-MEL-5 melanoma) of 2.12 µM and a TGI (SK-MEL-5 melanoma) of 12.6 µM. The GI50 (SK-MEL-28 melanoma) was 12.7 µM, the TGI (SK-MEL-28 melanoma) was 25.3 µM and the GI50 (SR leukemia) was 2.22 µM. It also gave a TGI (SR leukemia) of 7.47 µM, a GI50 (COLO 205 colon) of 11 µM and a TGI (COLO 205 colon) of 23 µM. It also gave a GI50 (U251 CNS) of 7.95 µM, a TGI (U251 CNS) of 20.6 µM and a GI50 (HCT-116 colon) of 3.5 µM. It also gave a TGI (HCT-116 colon) of 15.7 µM.
